{
  "source": "patent US20230321064A1",
  "about": "“Products for Treating the JNCL Disease” (Beyond Batten Disease Foundation, priority 2020, published 2023)",
  "key": {"[1]": {"tested_on": "cln3 morphant zebrafish embryos", "test": "Glycosphingolipid/SCMAS storage and eye phenotype in cln3 morphant zebrafish embryos", "type": "in vivo", "conditions": "miglustat 300 μM from 4 hpf for 88 h"}, "purified trehalase": {"tested_on": "purified trehalase", "test": "In vitro colorimetric trehalase assay (glucose generation, 340 nm)", "type": "biochemical", "conditions": "in the presence of miglustat; 340 nm absorbance", "method": "To this aim, an in vitro colorimetric assay was performed to measure the rate of generation of glucose, the product of trehalose hydrolysis by trehalase. In the absence of miglustat, trehalose was rapidly hydrolysed by purified trehalase, and the glucose produced could be quantified at 340 nm absorbance. In the test conditions, the amounts of glucose detected increased over time to reach a plateau in […]."}, "Cln3^Δex7-8 mice [2]": {"tested_on": "Cln3^Δex7-8 mice", "test": "Lysosomal storage in cerebellum (SCMAS staining)", "type": "in vivo, mouse", "conditions": "12 months of age", "method": "(§1) Cln3^Δex7-8 mice were obtained from the Jackson Laboratory. Control (C57BL/6J) and Cln3^Δex7-8 mice were housed 3-4 per cage in a room with a 12-h light/12-h dark cycle. Food and water were provided ad libitum. All mice used in this study were analyzed at 8 and 12 months of age and were littermates produced by crossing heterozygous Cln3^Δex7-8 mice. Only males were used for this analysis. Investigators were blinded when analyzing the data, and no randomization was necessary.\nFor oral administration, Trehalose was dissolved in drinking water to a final concentration of 2% and changed twice a week. […]\n(§2) Serotec, Cat. No. MCA1957), GFAP (DAKO, Cat. No. Z0334), Subunit C of mitochondrial ATP synthase (SCMAS; Abcam, Cat. No. ab181243), or cleaved caspase 3 (Asp175) (Cell Signaling, Cat. No. 9661S) followed by either rabbit anti-rat (VectorLab) or swine anti-rabbit (DAKO) secondary antibodies, and immunoreactivity detected with Vectastain ABC (avidin-biotin) kit (Vector) and diaminobenzidine as a chromogen.\nNon-overlapping images were captured, on three consecutive sections, through each region of interest. […] For quantification of storage and inflammation, images were analyzed using ImageJ analysis software (NIH), using an appropriate threshold that selected the foreground immunoreactivity above background. […]"}, "[3]": {"conditions": "cited from earlier work"}, "Cln3^Δex7-8 mice [4]": {"tested_on": "Cln3^Δex7-8 mice", "test": "Neuronal cell death, cleaved caspase-3 immunohistology in brain sections", "type": "in vivo, mouse", "conditions": "for cell death (cleaved CAS-3) in the VPM/VPL region: 12 months of age, oral, 2% Trehalose in drinking water, Miglustat in chow (FIG. 1E)", "method": "as §1\n(§3) For oral administration, Trehalose was dissolved in drinking water to a final concentration of 2% and changed twice a week. Trehalose-containing water was given to Cln3^Δex7-8 mice and WT mice by spontaneous oral administration starting at 21 days of age and continuing until the day the mice were sacrificed for neuropathology studies.\n(§4) Miglustat was administered in mixture with the food pellet starting at 21 days of age and continuing until the day the mice were sacrificed for neuropathology studies. Miglustat food was prepared by TestDiet using the 5V5R rodent diet (LabDiet). Two concentrations were used: 1.2 g/Kg chow (indicated as “low concentration”) and 7.2 g/Kg chow (indicated as “high concentration”) and two separate groups of Cln3^Δex7-8 mice were fed with either diet. One additional group of Cln3^Δex7-8 l mice was fed with a combination of the low-concentration Miglustat food and 2% Trehalose water.\n(§5) Twelve-month-old homozygous Cln3^Δex7-8 mice and age-matched controls (WT mice) were anaesthetized with isoflurane and transcardially perfused with PBS followed by 4% buffered paraformaldehyde in 0.1 M sodium phosphate buffer, pH 7.4. Brains were subsequently removed and postfixed overnight. Before sectioning, the brains were cryoprotected in a solution containing 30% sucrose in Tris-buffered saline (TBS: 50 mM Tris, pH 7.6). Consecutive 40 μm floating coronal sections were collected in 96-well plates. Series of sections were then stained with primary antisera against CD68 (AbD\nas §2\n(§6) Non-overlapping images were captured, on three consecutive sections, through each region of interest. All RGB images were captured via a live video camera (JVC, 3CCD, KY-F55B), mounted onto a Zeiss Axioplan microscope using a x 40 objective and saved as JPEGs. All parameters including lamp intensity, video camera set-up and calibration were maintained constant throughout image capturing. For quantification of storage and inflammation, images were analyzed using ImageJ analysis software (NIH), using an appropriate threshold that selected the foreground immunoreactivity above background. This threshold was then applied as a constant to all subsequent images analyzed per batch of animals and reagent used to determine the specific area of immunoreactivity for each antigen in each region. Data were plotted graphically as the mean percentage area of immunoreactivity per field ±s.e.m. for each region. For quantification of cell death, images were analyzed manually and scored for the presence of apoptotic nuclei. Data were plotted graphically as the mean number of apoptotic cells per field ±s.e.m. for each region. […]"}, "[5]": {"tested_on": "human CLN3 disease NPC derived cortical neurons", "test": "Glycosphingolipid and lysosomal storage in CLN3 patient iPSC/NPC derived cortical neurons", "type": "cell-based"}, "[6]": {"tested_on": "CLN3 1kb mutant human fibroblasts", "test": "Glycosphingolipid and lysosomal storage in CLN3 1 kb deletion mutant fibroblasts", "type": "cell-based"}, "Cln3^Δex7-8 mice [7]": {"tested_on": "Cln3^Δex7-8 mice", "test": "Microglial activation, CD68 immunohistochemistry in brain sections", "type": "in vivo, mouse", "method": "as §1, §3, §4, §5, §2\nas §6, with “Data were plotted graphically as the mean percentage area of immunoreactivity per field ±s.e.m. for each region.” left out, “nuclei.” for “nuclei. Data were plotted graphically as the mean number of apoptotic cells per field ±s.e.m. for each region.”\n(S1BF), the primary visual (V1) cortex, and the dorsolateral geniculate (DLG) (Pontikis et al., 2005). To quantify microglial activation, antibodies against the microglial marker CD68 were used. […]"}, "Cln3^Δex7-8 mice [8]": {"tested_on": "Cln3^Δex7-8 mice", "test": "Astrocytosis, GFAP immunohistochemistry in brain sections", "type": "in vivo, mouse", "method": "as §1, §3, §4, §5, §2\nNon-overlapping images were captured, on three consecutive sections, through each region of interest. All RGB images were captured via a live video camera (JVC, 3CCD, KY-F55B), mounted onto a Zeiss Axioplan microscope using a x 40 objective and saved as JPEGs. All parameters including lamp intensity, video camera set-up and calibration were maintained constant throughout image capturing. For quantification of storage and inflammation, images were analyzed using ImageJ analysis software (NIH), using an appropriate threshold that selected the foreground immunoreactivity above background. This threshold was then applied as a constant to all subsequent images analyzed per batch of animals and reagent used to determine the specific area of immunoreactivity for each antigen in each region. Data were plotted graphically as the mean percentage area of immunoreactivity per field ±s.e.m. for each region. For quantification of cell death, images were analyzed manually and scored for the presence of apoptotic nuclei. Data were plotted graphically as the mean number of apoptotic cells per field ±s.e.m. for each region. All analyses were performed blind to genotype and treatment.\n[…] was also quantified by performing immunohistochemistry staining of brain sections of all test and control mice using anti-GFAP antibodies."}, "[9]": {"conditions": "Miglustat 50 μM during the final week of differentiation"}},
  "note": "Entries after “also recorded” stand apart in the source; their conditions may differ. Like-named read-outs stand apart in the source and are kept apart here.",
  "data": [
    {"molecule": "CCCCN1C[C@H](O)[C@@H](O)[C@H](O)[C@H]1CO", "note": "[Miglustat, (2R,3R,4R,5S)-1-butyl-2-(hydroxymethyl)piperidine-3,4,5-triol]", "values": [
      {"measurement": "fluorescence intensity of glycolipids and of lipofuscin associated SCMAS storage", "setting": "[1]", "result": "normalised; also recorded: decrease, particularly in the brain, in fluorescence intensity"},
      {"measurement": "ganglioside GM1 storage within the brain (CtxB line scans)", "setting": "[1]", "result": "reduced; also recorded: normalised"},
      {"measurement": "retinal area", "setting": "[1]", "result": "restored to wild-type levels"},
      {"measurement": "trehalase-mediated hydrolysis of trehalose to glucose (glucose generated)", "setting": "purified trehalase", "result": "only a minimal amount of glucose was generated"},
      {"measurement": "increased storage in the cerebellum (SCMAS staining)", "setting": "Cln3^Δex7-8 mice [2]", "result": "no consistent effects"},
      {"measurement": "Solubility in water", "setting": "[3]; as a free base", "result": "(>1000 mg/mL as a free base)."},
      {"measurement": "Solubility in water", "setting": "[3]", "result": "Miglustat: Highly soluble in water"},
      {"measurement": "cell death (cleaved CAS-3) in the VPM/VPL region", "setting": "Cln3^Δex7-8 mice [4]", "result": "largely suppressed"},
      {"measurement": "cell death (cleaved CAS-3) in the VPM/VPL region", "setting": "Cln3^Δex7-8 mice [4]; listed as miglustat", "result": "prevented"},
      {"measurement": "programmed cell death (cleaved caspase-3 reactive cells)", "setting": "Cln3^Δex7-8 mice [4]; regions analyzed: VPM/VPL, dLG, S1BF, V1 (FIGS. 1A-D), oral treatment", "result": "effective in abating programmed cell death"},
      {"measurement": "excitotoxic glutamate induced Ca2+ signalling", "setting": "[5]; [9]", "result": "normalisation of excitotoxic glutamate induced Ca^2+ signalling"},
      {"measurement": "expansion of the lysosomal and autophagic vacuole systems (lysotracker and cytoID staining)", "setting": "[5]; [9]", "result": "reduction in expansion of the lysosomal and autophagic vacuole systems"},
      {"measurement": "lipid and protein storage levels (globoside, ganglioside GM1, SCMAS)", "setting": "[5]; [9]", "result": "normalised; also recorded: reduced lipid and protein storage levels"},
      {"measurement": "lipid localisation", "setting": "[5]; [9]", "result": "normalisation of lipid localisation"},
      {"measurement": "lysosomal Ca2+ content", "setting": "[5]; Miglustat 50 μM, ionomycin/GPN, Fura 2,AM", "result": "normalisation of lysosomal Ca^2+ content"},
      {"measurement": "accumulation of SCMAS", "setting": "[6]; 50 μM miglustat", "result": "significantly reduced"},
      {"measurement": "localisation of CtxB (ganglioside GM1)", "setting": "[6]; 50 μM miglustat", "result": "restores sub-plasma membrane localisation"},
      {"measurement": "lysosomal inclusions by EM", "setting": "[6]; 50 μM miglustat", "result": "notable absence of the dark membranous whorl-like inclusions"},
      {"measurement": "peak CtxB fluorescence (confocal line scans)", "setting": "[6]; 50 μM miglustat", "result": "clearly reduces the peak CtxB fluorescence"},
      {"measurement": "swollen mitochondria with abnormal cristae (electron microscopy)", "setting": "[6]; 50 μM miglustat", "result": "normalised"},
      {"measurement": "accumulating GSLs (ganglioside GM1 by CtxB, globosides Gb3/4 by SLxT)", "setting": "[6]; 50 μM miglustat for 5 days", "result": "normalised; also recorded: significant reduction in the accumulating GSLs back to control levels"},
      {"measurement": "elevated lysosomal Ca2+", "setting": "[6]; 50 μM miglustat, ionomycin/GPN, Fura 2,AM", "result": "restored to healthy control levels"},
      {"measurement": "localisation of CtxB (ganglioside GM1)", "setting": "[6]; 50 μM miglustat, listed as miglustat", "result": "normalisation in localisation of CtxB back to the plasma membrane"},
      {"measurement": "autophagy (CytoID)", "setting": "[6]; 50 μM miglustat, live cells", "result": "normalisation in elevated autophagy"},
      {"measurement": "expansion of the lysosomal system (lysotracker staining)", "setting": "[6]; 50 μM miglustat, live cells", "result": "normalisation in the visible expansion of the lysosomal system"},
      {"measurement": "microglial activation (CD68) in the VPM/VPL", "setting": "Cln3^Δex7-8 mice [7]; FIG. 2A", "result": "potently prevented microglial activation; also recorded: undistinguishable from WT mice"},
      {"measurement": "microglial activation (CD68) in the DLG", "setting": "Cln3^Δex7-8 mice [7]; FIG. 2B", "result": "significantly decreased microglial activation"},
      {"measurement": "CD68 staining in the VPM/VPL", "setting": "Cln3^Δex7-8 mice [7]; low concentrations of Miglustat (1.2 g/Kg chow), FIG. 2E", "result": "largely reduce CD68 staining"},
      {"measurement": "CD68 staining in the cerebellum", "setting": "Cln3^Δex7-8 mice [7]; low concentrations of Miglustat, not shown", "result": "partially or largely reduce CD68 staining"},
      {"measurement": "astroglial activation (GFAP staining) in the VPM/VPL region", "setting": "Cln3^Δex7-8 mice [8]; 12 months of age, oral, Miglustat even at low doses (FIG. 3E)", "result": "largely suppressed"},
      {"measurement": "astrocytosis (GFAP immunoreactivity) in the VPM/VPL", "setting": "Cln3^Δex7-8 mice [8]; FIG. 3A", "result": "undistinguishable from that of WT mice"},
      {"measurement": "astrocytosis (GFAP immunoreactivity) in the DLG", "setting": "Cln3^Δex7-8 mice [8]; FIG. 3B", "result": "prevented astrocytosis"},
      {"measurement": "astrocytosis (GFAP) in the S1BF", "setting": "Cln3^Δex7-8 mice [8]; FIG. 3C", "result": "reduction in astrocytosis, although this did not reach statistical significance"}
    ]}
  ]
}
